The values that follow come from patent US20250262247A1, “MICROGLIAL CELLS AS THERAPEUTIC TARGETS IN NEURODEVELOPMENTAL DISORDERS” (The Regents of the University of California, priority 2022, published 2025).

The experiment concerns MGL. Description: Phagocytosis assay with block of zymosan uptake. It is filed as cell-based, human. To be noted: 1 μM, 30 min prior to incubation with zymosan. On the procedure:
Phagocytosis Assay. Phagocytosis assay was performed according to the manufacturer's instructions with pHrodo™ Red Zymosan A BioParticles® (Life Technologies, Carlsbad, USA) conjugate for phagocytosis. Briefly, 20,000 MGL were plated on a 96-well tissue culture plate and incubated in M2 media [Neurobasal media supplemented with 2×Gem21 NeuroPlex, 1×NEAA, 1× Glutamax] containing fluorescently labeled zymosan particles (0.125 mg/ml) for 2 h at 37° C., 5% CO2. Fluorescence was measured with Tecan Infinite 200 PRO microplate reader (Life Sciences, Switzerland).
For experiments featuring block of zymosan uptake, cell monolayers were treated with 1 μM Cytochalasin D (Sigma-Aldrich) 30 min prior to incubation with zymosan.

Take `C=C1[C@@H](C)[C@H]2[C@H](Cc3ccccc3)NC(=O)[C@]23[C@H](OC(C)=O)/C=C/[C@@](C)(O)C(=O)[C@@H](C)C/C=C/[C@H]3[C@@H]1O` [Cytochalasin D]: the “Engulfment of zymosan particles” value is recorded as “reduced”.
